Laboratory results reported in PubChem BioAssay (NCI).
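Compound exposure: 48 hours, 5 concentrations, 96-well plates. GI50: concentration for 50% inhibition of growth. TGI: concentration producing complete growth inhibition.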

How the values were obtained:
Experiment in all cases: NCI anticancer screen, dose series, 48 h
HCC-2998 colon = system: HCC-2998 colon
SK-OV-3 ovarian = system: SK-OV-3 ovarian
SW-620 colon = system: SW-620 colon
MDA-MB-231 breast = system: MDA-MB-231 breast
MCF7 breast = system: MCF7 breast
UACC-62 melanoma = system: UACC-62 melanoma
LOX IMVI melanoma = system: LOX IMVI melanoma

SMILES	GI50 (HCC-2998 colon)	TGI (HCC-2998 colon)	GI50 (SK-OV-3 ovarian)	TGI (SK-OV-3 ovarian)	GI50 (SW-620 colon)	TGI (SW-620 colon)	GI50 (MDA-MB-231 breast)	TGI (MDA-MB-231 breast)	GI50 (MCF7 breast)	TGI (MCF7 breast)	GI50 (UACC-62 melanoma)	TGI (UACC-62 melanoma)	GI50 (LOX IMVI melanoma)	TGI (LOX IMVI melanoma)
COC(=O)C(Br)(C(=O)OC)C(Br)C(Br)C(Br)c1ccccc1 (stereo not given)	17.5 µM	32 µM	16.8 µM	31.9 µM	1.64 µM	3.07 µM	3.11 µM	9.71 µM	1.67 µM	5.07 µM	2.28 µM	6.56 µM	1.85 µM	3.66 µM
COc1ccc(C#CC2=C(Br)C(=O)OC2)cc1	–	–	–	–	1.23 µM	4.54 µM	9.48 µM	27.6 µM	2.47 µM	> 50 µM	6.48 µM	12.8 µM	6.42 µM	14 µM
C=C(C)[C@@H]1CC[C@]2(COC(=O)c3ccccc3C(=O)O)CC[C@]3(C)[C@H](CC[C@@H]4[C@@]5(C)CC[C@H](OC(=O)c6ccccc6C(=O)O)C(C)(C)[C@@H]5CC[C@]43C)[C@@H]12	74.3 µM	> 100 µM	35.8 µM	> 100 µM	97.7 µM	> 100 µM	25 µM	69.3 µM	> 100 µM	> 100 µM	16.6 µM	> 100 µM	24.6 µM	> 100 µM
CSc1ccc(NC(=O)CCl)cc1	–	7.19 µM	–	> 10 µM	–	> 10 µM	–	> 10 µM	–	> 10 µM	–	3.65 µM	–	> 10 µM
COc1ccc2c3c1OC1C4(CCC5C(C2)N(CC2CC2)CCC351)OCCO4 (stereo not given)	–	> 100 µM	–	> 100 µM	–	> 100 µM	–	> 100 µM	–	> 100 µM	–	> 100 µM	–	> 100 µM
NC1=C(/C(N)=N/O)C(c2ccccc2)c2ccc3ccccc3c2O1 (stereo not given)	0.729 µM	15.8 µM	0.616 µM	> 100 µM	0.243 µM	> 100 µM	0.988 µM	24.5 µM	0.261 µM	97.4 µM	0.112 µM	15.2 µM	0.621 µM	17.2 µM
Cn1c(=S)c2[nH]c(SCc3cccnc3)nc2n(C)c1=O	–	> 100 µM	–	> 100 µM	–	> 100 µM	–	> 100 µM	–	> 100 µM	–	> 100 µM	–	> 100 µM
COc1ccc(C(=O)c2cc(C)c(OC)c(C)c2)c(OC)c1OC(=O)C(Cl)Cl	0.178 µM	> 23.6 µM	0.163 µM	> 100 µM	0.0377 µM	> 100 µM	0.075 µM	> 100 µM	0.2 µM	> 100 µM	0.657 µM	> 100 µM	0.0455 µM	> 100 µM
COc1ccc2c(ccc3oc([N+](=O)[O-])cc32)c1	0.177 µM	0.418 µM	0.231 µM	1.84 µM	0.178 µM	10.8 µM	0.167 µM	0.596 µM	0.176 µM	3 µM	0.158 µM	0.333 µM	0.0551 µM	0.312 µM
C=CC(=O)N1CCC(CNc2ncnc(N)c2-c2ccc(Oc3ccccc3)cc2)CC1	21 µM	46.7 µM	18 µM	70 µM	33.5 µM	> 100 µM	25.5 µM	89 µM	23.4 µM	> 100 µM	16 µM	34.8 µM	16.3 µM	33.2 µM
O=CCC(O)C(O)C(O)CO (stereo not given)	> 100 µM	> 100 µM	> 100 µM	> 100 µM	> 100 µM	> 100 µM	> 100 µM	> 100 µM	> 100 µM	> 100 µM	> 100 µM	> 100 µM	> 100 µM	> 100 µM
Cc1ccc(Nn2c(SCC(=O)Nc3nc(-c4ccccc4)cs3)nc(C)c2C)cc1	–	–	10.6 µM	> 100 µM	8.3 µM	> 100 µM	3.34 µM	> 100 µM	–	–	3.15 µM	> 100 µM	3.32 µM	19.3 µM
COc1cc2c3c(n(CCCN=[N+]=[N-])c(=O)c2cc1OC)-c1ccc(NC(C)=O)cc1C3=O	> 50 µM	> 50 µM	> 50 µM	> 50 µM	> 50 µM	> 50 µM	> 50 µM	> 50 µM	> 50 µM	> 50 µM	> 50 µM	> 50 µM	> 50 µM	> 50 µM
CCSc1nnc(-c2ccc3ccccc3c2O)n1-c1ccccc1	> 100 µM	> 100 µM	> 100 µM	> 100 µM	–	–	> 100 µM	> 100 µM	–	–	–	–	–	–
CC(NNC(=S)N1CCN(c2ccccn2)CC1)c1cccc[n+]1[O-] (stereo not given)	–	> 100 µM	–	–	–	> 100 µM	–	> 100 µM	–	> 100 µM	–	22.8 µM	–	39.1 µM
C=C(C)C1Cc2cc(C(C)=O)ccc2O1 (stereo not given)	–	> 100 µM	–	> 100 µM	–	> 100 µM	–	> 100 µM	–	> 100 µM	–	> 100 µM	–	> 100 µM
N#Cc1cc2c(=S)[nH]c(=S)[nH]c2nc1SCc1ccccc1	24.6 µM	79 µM	> 100 µM	> 100 µM	48.9 µM	> 100 µM	21.7 µM	87.4 µM	50.6 µM	> 100 µM	17 µM	54.6 µM	17.3 µM	43.4 µM
CC1=CC[C@@H]2C(=O)C=CC=C[C@H]12.[C-]#[O+].[C-]#[O+].[C-]#[O+].[Fe]	> 100 µM	> 100 µM	> 100 µM	> 100 µM	–	–	–	–	–	–	> 100 µM	> 100 µM	> 100 µM	> 100 µM
O=C(O)c1ccccc1C(=O)Nc1cc2c(cc1Br)-c1ccccc1C2=O	–	58 µM	–	> 100 µM	–	> 100 µM	–	> 100 µM	–	> 100 µM	–	> 100 µM	–	> 100 µM
COc1cc(-c2cn(-c3ccc(F)cc3)c(=O)[nH]2)cc(OC)c1OC	> 100 µM	> 100 µM	> 100 µM	> 100 µM	> 100 µM	> 100 µM	> 100 µM	> 100 µM	> 100 µM	> 100 µM	> 100 µM	> 100 µM	> 100 µM	> 100 µM
